{
  "source": "paper PMC8586700",
  "about": "(Frontiers in Pharmacology, 2021)",
  "key": {"[1]": {"assay": "Pharmacokinetic experiment, single intragastric administration, plasma by HPLC-UV", "assay_type": "in vivo, SD rats", "settings": "for AUC / Cmax / half-life / Tmax / concentration at 40 min / concentration at 60 min / concentration at 90 min / concentration at 150 min / concentration at 210 min: SD (Sprague-Dawley); for AUC / Cmax / half-life / Tmax / concentration at 40 min / concentration at 60 min / concentration at 90 min / concentration at 150 min / concentration at 210 min / concentration at 20 min / concentration at 270 min / concentration at 330 min: rat, plasma, po; for AUC / Cmax / half-life / Tmax: 200 mg/kg; for AUC: read-out: AUC(0-tn) of DHC (converted); for Cmax: read-out: Cmax of DHC; for half-life: read-out: T1/2 of DHC; for Tmax: read-out: Tmax of DHC (converted); for concentration at 40 min / concentration at 60 min / concentration at 90 min / concentration at 150 min / concentration at 210 min / concentration at 20 min / concentration at 270 min / concentration at 330 min: read-out: Mean concentrations ±sd, DHC; for concentration at 20 min / concentration at 270 min / concentration at 330 min: SD", "description": "An Agilent 1200 HPLC system was used. […] The flow rate was set at 1 ml min^−1 and detection wavelength was 420, 340 and 323 nm. Injection volume was 5 μL. The column temperature was set at 30°C.\n(§1) Plasma or brain homogenate of SD rats was taken 50 μL, internal standard solution of 50 μL and protein precipitator of 150 μL were added. After eddy oscillation for 3 min, supernatant was separated by centrifugation.\nBlood samples were collected from tail vein at 20 min, 40 min, 1, 1.5, 2.5, 3.5, 4.5, and 5.5 h after intragastric administration.\n(§2) Plasma was collected by centrifugation of blood at 3000 RPM for 10min, and stored at -80 °C. Brain tissue of SD rat was dissected, weighed and added with normal saline at a volume of 2 ml g^−1. After homogenating brain tissue for 3 min by a homogenizer at 14,000 RPM, the supernatant was collected after centrifugation at 12,000 RPM for 10 min."}, "[2]": {"assay": "Repeated administration, drug concentrations of plasma and brain", "assay_type": "in vivo, SD rats", "settings": "for Mean concentrations±sd, DHC in plasma after multiple doses: loading dose then half doses for four consecutive days", "description": "as §1\nThe concentration of drugs in plasma and brain homogenate after repeated administration was determined according to the same grouping and administration method. The loading dose of 200 mg kg^−1 was given for the first time and half doses for four consecutive days.\nas §2"}, "[3]": {"assay": "Stability experiment in plasma and brain homogenate samples", "assay_type": "in vitro ADME, SD rats", "description": "Three blank samples of plasma and brain homogenate of SD rats were added into the mixed standard solution. The stability experiment included placing at room temperature for 12 h, repeatedly freeze-thaw for three times and frozen for 15 days."}, "[4]": {"settings": "Group A: CUR 200 mg kg^−1 oral alone"}, "[5]": {"settings": "Group B: CUR 200 mg kg^−1 and PIP 150 mg kg^−1 oral"}, "[6]": {"settings": "Group C: CUR 200 mg kg^−1 and ILE 150 mg kg^−1 oral"}, "[7]": {"settings": "Group A (CUR 200 mg kg^−1 oral alone)"}, "[8]": {"settings": "Group B (CUR 200 mg kg^−1 and PIP 150 mg kg^−1 oral)"}, "[9]": {"settings": "Group C (CUR 200 mg kg^−1 and ILE 150 mg kg^−1 oral)"}, "[10]": {"settings": "combined CUR and ILE compared with CUR alone"}, "[11]": {"settings": "combined CUR and ILE compared with combined administration with PIP"}, "[12]": {"settings": "combined CUR and PIP compared with single CUR administration"}},
  "note": "Like-named read-outs stand apart in the source and are kept apart here.",
  "data": [
    {"smiles": "COc1cc(/C=C/C(=O)CC(=O)CCc2ccc(O)c(OC)c2)ccc1O", "note": "[DHC, Dihydrocurcumin]", "values": [
      {"measurement": "CL of DHC", "setting": "[1]; [4]", "value": "233.2 ± 7.8", "unit": "mL/min"},
      {"measurement": "Vd of DHC", "setting": "[1]; [4]", "value": "9,087.6 ± 302.9 mL"},
      {"measurement": "CL of DHC", "setting": "[1]; [5]", "value": "70.0 ± 3.3", "unit": "mL/min"},
      {"measurement": "Vd of DHC", "setting": "[1]; [5]", "value": "2,802.6 ± 133.4 mL"},
      {"measurement": "CL of DHC", "setting": "[1]; [6]", "value": "52.7 ± 2.3", "unit": "mL/min"},
      {"measurement": "Vd of DHC", "setting": "[1]; [6]", "value": "3,751.4 ± 165.6 mL"},
      {"measurement": "AUC", "setting": "[1]; [4]", "value": 7610, "unit": "ng·h/mL"},
      {"measurement": "Cmax", "setting": "[1]; [4]", "value": "6100 ± 3200", "unit": "ng/mL"},
      {"measurement": "half-life", "setting": "[1]; [4]", "value": "24.8 ± 9.3", "unit": "min"},
      {"measurement": "Tmax", "setting": "[1]; [4]", "value": 26, "unit": "min"},
      {"measurement": "AUC", "setting": "[1]; [5]", "value": 7060, "unit": "ng·h/mL"},
      {"measurement": "Cmax", "setting": "[1]; [5]", "value": "7500 ± 1100", "unit": "ng/mL"},
      {"measurement": "half-life", "setting": "[1]; [5]", "value": "25.4 ± 6.3", "unit": "min"},
      {"measurement": "Tmax", "setting": "[1]; [5]", "value": 22, "unit": "min"},
      {"measurement": "AUC", "setting": "[1]; [6]", "value": 16800, "unit": "ng·h/mL"},
      {"measurement": "Cmax", "setting": "[1]; [6]", "value": "9200 ± 2400", "unit": "ng/mL"},
      {"measurement": "half-life", "setting": "[1]; [6]", "value": "114 ± 31.2", "unit": "min"},
      {"measurement": "Tmax", "setting": "[1]; [6]", "value": 18, "unit": "min"},
      {"measurement": "concentration at 40 min", "setting": "[1]; [7]", "value": "3500 ± 900", "unit": "ng/mL"},
      {"measurement": "concentration at 60 min", "setting": "[1]; [7]", "value": "1800 ± 500", "unit": "ng/mL"},
      {"measurement": "concentration at 90 min", "setting": "[1]; [7]", "value": "1400 ± 500", "unit": "ng/mL"},
      {"measurement": "concentration at 150 min", "setting": "[1]; [7]", "value": "1200 ± 700", "unit": "ng/mL"},
      {"measurement": "concentration at 210 min", "setting": "[1]; [7]", "value": "1100 ± 300", "unit": "ng/mL"},
      {"measurement": "concentration at 40 min", "setting": "[1]; [8]", "value": "4000 ± 600", "unit": "ng/mL"},
      {"measurement": "concentration at 60 min", "setting": "[1]; [8]", "value": "2600 ± 500", "unit": "ng/mL"},
      {"measurement": "concentration at 90 min", "setting": "[1]; [8]", "value": "2000 ± 400", "unit": "ng/mL"},
      {"measurement": "concentration at 150 min", "setting": "[1]; [8]", "value": "1000 ± 300", "unit": "ng/mL"},
      {"measurement": "concentration at 210 min", "setting": "[1]; [8]", "value": "600 ± 200", "unit": "ng/mL"},
      {"measurement": "concentration at 40 min", "setting": "[1]; [9]", "value": "6300 ± 700", "unit": "ng/mL"},
      {"measurement": "concentration at 60 min", "setting": "[1]; [9]", "value": "4800 ± 700", "unit": "ng/mL"},
      {"measurement": "concentration at 90 min", "setting": "[1]; [9]", "value": "4000 ± 1200", "unit": "ng/mL"},
      {"measurement": "concentration at 150 min", "setting": "[1]; [9]", "value": "3800 ± 700", "unit": "ng/mL"},
      {"measurement": "concentration at 210 min", "setting": "[1]; [9]", "value": "2600 ± 100", "unit": "ng/mL"},
      {"measurement": "concentration at 20 min", "setting": "[1]; [7]", "value": "6100 ± 3200", "unit": "ng/mL"},
      {"measurement": "concentration at 270 min", "setting": "[1]; [7]", "value": "900 ± 400", "unit": "ng/mL"},
      {"measurement": "concentration at 330 min", "setting": "[1]; [7]", "value": "800 ± 400", "unit": "ng/mL"},
      {"measurement": "concentration at 20 min", "setting": "[1]; [8]", "value": "7500 ± 1100", "unit": "ng/mL"},
      {"measurement": "concentration at 270 min", "setting": "[1]; [8]", "value": "250 ± 30", "unit": "ng/mL"},
      {"measurement": "concentration at 330 min", "setting": "[1]; [8]", "value": "150 ± 30", "unit": "ng/mL"},
      {"measurement": "concentration at 20 min", "setting": "[1]; [9]", "value": "9200 ± 2400", "unit": "ng/mL"},
      {"measurement": "concentration at 270 min", "setting": "[1]; [9]", "value": "1400 ± 700", "unit": "ng/mL"},
      {"measurement": "concentration at 330 min", "setting": "[1]; [9]", "value": "600 ± 200", "unit": "ng/mL"},
      {"measurement": "AUC(0-tn) of DHC increased by", "setting": "[1]; [10]", "value": 1.2, "unit": "times"},
      {"measurement": "CL of DHC reduced by", "setting": "[1]; [10]", "value": 77.4, "unit": "%"},
      {"measurement": "Cmax of DHC increased by", "setting": "[1]; [10]", "value": 50.8, "unit": "%"},
      {"measurement": "T1/2 of DHC increased by", "setting": "[1]; [10]", "value": 3.6, "unit": "times"},
      {"measurement": "Tmax of DHC decreased by", "setting": "[1]; [10]", "value": 30.8, "unit": "%"},
      {"measurement": "Vd of DHC reduced by", "setting": "[1]; [10]", "value": 58.6, "unit": "%"},
      {"measurement": "Vd of DHC increased by", "setting": "[1]; combined CUR and ILE compared with CUR and PIP combined", "value": 34, "unit": "%"},
      {"measurement": "CL of DHC reduced by", "setting": "[1]; combined CUR and ILE compared with CUR combined with PIP", "value": 24.6, "unit": "%"},
      {"measurement": "AUC(0-tn) of DHC increased by", "setting": "[1]; [11]", "value": 1.4, "unit": "times"},
      {"measurement": "Cmax of DHC increased by", "setting": "[1]; [11]", "value": 22.7, "unit": "%"},
      {"measurement": "T1/2 of DHC increased by", "setting": "[1]; [11]", "value": 3.5, "unit": "times"},
      {"measurement": "Tmax of DHC decreased by", "setting": "[1]; [11]", "value": 18.2, "unit": "%"},
      {"measurement": "AUC(0-tn) of DHC decreased by", "setting": "[1]; [12]", "value": 7.2, "unit": "%"},
      {"measurement": "CL of DHC decreased by", "setting": "[1]; [12]", "value": 70, "unit": "%"},
      {"measurement": "Cmax of DHC increased by", "setting": "[1]; [12]", "value": 23, "unit": "%"},
      {"measurement": "Tmax of DHC decreased by", "setting": "[1]; [12]", "value": 15.4, "unit": "%"},
      {"measurement": "Vd of DHC decreased by", "setting": "[1]; [12]", "value": 69.2, "unit": "%"},
      {"measurement": "Mean concentrations±sd, DHC in plasma after multiple doses", "setting": "[2]; Group I: CUR", "value": "1400 ± 600", "unit": "ng/mL"},
      {"measurement": "Mean concentrations±sd, DHC in plasma after multiple doses", "setting": "[2]; Group II: CUR and PIP", "value": "4600 ± 1800", "unit": "ng/mL"},
      {"measurement": "Mean concentrations±sd, DHC in plasma after multiple doses", "setting": "[2]; Group III: CUR and ILE", "value": "8700 ± 2500", "unit": "ng/mL"},
      {"measurement": "Detection in brain tissue", "setting": "[2]; after repeated administration", "value": "could not be detected"},
      {"measurement": "Recoveries after repeated freezing-thawing for three times", "setting": "[3]; plasma", "value": "over 100%"},
      {"measurement": "Recoveries after being kept at room temperature for 12 h", "setting": "[3]; plasma samples", "value": "less than 30%"}
    ]}
  ]
}
